Results from patent EP3246028A1, “QUINOLINE COMPOUNDS FOR INCREASING INSULINE RELEASE” (Max-Planck-Gesellschaft zur Förderung der Wissenschaften …, priority 2016, dated 2017).
“Also recorded” adds a separate entry of the source.

What was measured:
Format in all cases: cell-based
[1] = system: RIN-5AH cells; experiment: Calcium influx by FACS analysis (Fluo-4 AM fluorescence); details: extracellular Ca2+ present, compound 12 at 5 µM
Description: Calcium influx was measured by FACS analysis, similar to protocols previously described (Brewis, I. A., journal of andrology 21, 238-249, doi:10.1002/j.1939-4640.2000.tb02101.x (2000); Vines, A., Cytometry Part A 77A, 1091-1097, doi:10.1002/cyto.a.20974 (2010); Schepers, E., Journal of Immunological Methods 348, 74-82, doi:http://dx.doi.org/10.1016/j.jim.2009.07.002 (2009)).
RIN-5AH cells (30,000 cells per well) were plated in 12 well plates and incubated overnight at 37°C and 5% CO2. Cells were stained with Fluo-4 AM (molecular probes, F14201) by using a 3µM stock solution prepared in HBSS with Ca2+ and Mg2+ (HBSS++) and with addition of a final amount of 0.02% Pluronic-F127 (molecular probes, P6867). Cells were incubated with 600ul of the dye/well for 1h at 37°C, in 5% CO2. They were washed 2x with Ca2+ and Mg2+ free HBSS (HBSS--) (Gibco, 14170) before moving to the next step of the protocol (see below).
Cells were trypsinized for three minutes at 37°C and 5% CO2. The cell suspension was then diluted by adding 1ml HBSS-- / well and centrifuged for 3 minutes at 1200 RPM. Cells were resuspended in 1 mL of HBSS++ or HBSS-- before starting the measurement. Base fluorescent signal was recorded for 30 seconds followed by treatment with the various compounds by quickly adding the compounds to the FACS analysis tubes, while acquisition was not interrupted (gaps). […] Samples were measured continuously for the desired time and all measurements were completed within 40 minutes. Unstained cells and stained cells in external buffer without Ca2+ and Mg2+ (HBSS--) were used as negative controls for the treatments. Data were acquired on BD-FACSCalibur and the visualizations were prepared by FlowJo software.

[2] = system: RIN-5AH cells; experiment: Whole cell patch clamp (current clamp and voltage clamp)
Description: For the purpose of investigation of membrane potential changes and membrane depolarization that triggers and activate voltage dependent calcium channels in beta cells, whole cell patch clamp studies were conducted with the compounds of the present invention. RIN-5AH cells were trypsinized and suspended in medium. Cells were transferred into the recording chamber and allowed to settle down before beginning a slow perfusion with the external buffer (138.0 mM; NaCl; 5.6 mM KCl; 11.1 mM Glucose; 1.2 mM; MgCl2; 2.6 mM CaCl2; 10.0 mM HEPES). Cells were sealed and patched by the application of a gentle negative pressure. Holding membrane potential was set up to -70mV for voltage clamp experiments. After patching the cells, at least 10s of base signal was recorded for both voltage clamp and current clamp measurements. External stimulation of cells was done by using Picospritzer II instrument (Parker) with 5psi for 30s with the desired concentrations (50uM and 500uM for compound 12 and 500uM for glibenclamide as control). The total recording time was set to 1-4 minutes.

[3] = system: RIN-5AH insulinoma beta cell line; experiment: Insulin secretion (insulin ELISA of supernatants); details: for insulin secretion relative to a DMSO control, compared to previously reported quinoline compounds: 5 µM compound 12 vs 50 µM quinidine or chloroquine, 10 µM levofloxacin or gatifloxacin, Figure 1
Description: Culture medium and supplements were purchased from Life Technologies. The RIN-5AH insulinoma beta cell line was cultured in RPMI 1640 supplemented with 10% FBS, 2 mM glutamine. All culture media contained 1x penicillin-streptomycin. Cells were grown on 15 cm culture plates at 37°C under 5% CO2 in high humidity atmosphere.
To determine the insulin level from the supernatants insulin ELISA kits from Millipore or Mercodia were used. RIN-5AH cells were seeded in 96 well or 12 well plates and grown overnight. RIN-5AH cells never reached more than 80% confluency before treatment. Cells were washed once with PBS before treatment. Cells were treated in medium for 2 hours and with 5 µM of insulin secretagogue according to the present invention, if not otherwise indicated. After treatment 100ul of supernatant was taken. Samples were assayed immediately or stored at -20°C until measurement. Dilutions were made if necessary and ELISA was subsequently performed according to the user's manual. Insulin secretion was normalized to cell number by MTT assay or to total protein amount by BCA assay (ThermoFisher Scientific, 23225). Plates were read on BioTrek Elx800 absorbance reader at 450 nm.
RIN-5AH beta cells were treated with 5 µM compound 12 or 50 µM quinidine or chloroquine according to the above described protocol (Example 1).

SMILES	divalent calcium cation influx (Fluo-4 AM fluorescence by FACS) ([1]; Figure 2)	time membrane potential is kept in depolarized state / returns to its initial value ([2]; current clamp) [s]	onset of increase of inward current ([2]; voltage clamp)	insulin secretion relative to a DMSO control, compared to previously reported quinoline compounds [3]	insulin secretion relative to a DMSO control, compared to previously reported quinoline compounds ([3]; listed as compound 12)	activation at 5 µM ([3]; RIN-5AH cells, 5 µM, treated in medium for 2 hours, read-out: AV_INSULIN (percent increase in insulin secretion over a DMSO control)) [%]	divalent calcium cation influx (Fluo-4 AM fluorescence by FACS) ([1]; Figure 2, listed as compound 12)	depolarization rate ([2]; current clamp, 500 µM, Figure 3)	shift in membrane potential in current clamp mode (CC) ([2]; from -70mV, after puffs for 30s, Figures 3A and 3B) [mV]	maximal inward current versus GBA treated cells ([2]; voltage clamp, 50 µM compound 12 vs GBA)	difference of maximal inward ion current versus GBA ([2]; voltage clamp, same concentrations of compound 12 and GBA (500 µM))	duration of effect on inward current compared to GBA ([2]; voltage clamp, Figure 4)	time until inward current flow returned back to baseline ([2]; voltage clamp, Figure 4) [min]	effect on insulin secretion ([3]; negative control quinoline compounds)
COc1ccc(Cl)cc1C(=O)NCCc1ccc(S(=O)(=O)NC(=O)NC2CCCCC2)cc1 [GBA, glibenclamide, reference compound]	caused calcium influx, however, with a delayed response	90	small delayed response	–	–	–	–	–	–	–	–	–	–	–
COc1cc(Nc2cc(C#N)nc3cc(F)ccc23)c(Cl)cc1Cl [Compound 12, 4-(2,4-dichloro-5-methoxy-anilino)-7-fluoro-quinoline-2-carbonitrile]	induced divalent calcium cation influx	> 240	immediately	more effective	significantly superior activity	85	induces divalent calcium cation influx; also recorded: induced Ca2+ influx	dramatically increased	-20	more than 5 fold	more than 10 fold	longer lasting effect	3	–
COc1cc(Nc2ccnc3cc(OCc4ccccc4)c(OC)cc23)c(Cl)cc1Cl [Compound 73, 7-benzyloxy-N-(2,4-dichloro-5-methoxy-phenyl)-6-methoxy-quinolin-4-amine]	did not show any increase	–	–	–	–	–	–	–	–	–	–	–	–	didn't show any effect
